Values after ≈ are worked out from the molar mass of the structure shown.
Legend:
Format in all cases: functional
Candida albicans = assay: Antifungal activity against Candida albicans ATCC 10231 by broth microdilution method
Cryptococcus neoformans = assay: Antifungal activity against Cryptococcus neoformans ATCC 36556 by broth microdilution method
Pichia kudriavzevii = assay: Antifungal activity against Candida krusei ATCC 6258 by broth microdilution method
Aspergillus terreus = assay: Antifungal activity against Aspergillus terreus ATCC 46941 by broth microdilution method
Clavispora lusitaniae = assay: Antifungal activity against Candida lusitaniae ATCC 42720 by broth microdilution method
Candida tropicalis = assay: Antifungal activity against Candida tropicalis ATCC 13803 by broth microdilution method
Aspergillus fumigatus = assay: Antifungal activity against Aspergillus fumigatus ATCC 16424 by broth microdilution method

| SMILES | MIC (Candida albicans) | MIC (Cryptococcus neoformans) | MIC (Pichia kudriavzevii) | MIC (Aspergillus terreus) | MIC (Clavispora lusitaniae) | MIC (Candida tropicalis) | MIC (Aspergillus fumigatus) |
| --- | --- | --- | --- | --- | --- | --- | --- |
| COc1ccc2c(Cc3ccc(C(C)C)cc3)c3[n+](cc2c1OC)CCc1cc2c(cc1-3)OCO2.[Cl-] | 4 µg/mL | 4 µg/mL | 4 µg/mL | 32 µg/mL | 8 µg/mL | 1 µg/mL | 64 µg/mL |
| COc1ccc2c(Cc3ccc(C(C)(C)C)cc3)c3[n+](cc2c1OC)CCc1cc2c(cc1-3)OCO2.[Cl-] | 4 µg/mL | 4 µg/mL | 8 µg/mL | 64 µg/mL | 8 µg/mL | 2 µg/mL | 64 µg/mL |
| COc1ccc2c(Cc3cc(F)cc(F)c3)c3[n+](cc2c1OC)CCc1cc2c(cc1-3)OCO2.[Cl-] | 128 µg/mL | 32 µg/mL | 64 µg/mL | > 128 µg/mL | 64 µg/mL | 32 µg/mL | > 128 µg/mL |
| COc1ccc2c(Cc3ccc(C(F)(F)F)cc3)c3[n+](cc2c1O)CCc1cc2c(cc1-3)OCO2.[Cl-] | 128 µg/mL | 16 µg/mL | 64 µg/mL | > 128 µg/mL | 64 µg/mL | 64 µg/mL | > 128 µg/mL |
| COc1ccc2c(Cc3ccc(C(C)(C)C)cc3)c3[n+](cc2c1O)CCc1cc2c(cc1-3)OCO2.[Cl-] | 16 µg/mL | 8 µg/mL | 32 µg/mL | > 128 µg/mL | 8 µg/mL | 16 µg/mL | > 128 µg/mL |
| COc1ccc2c(Cc3cc(F)c(F)c(F)c3)c3[n+](cc2c1O)CCc1cc2c(cc1-3)OCO2.[Cl-] | > 128 µg/mL | 64 µg/mL | 128 µg/mL | > 128 µg/mL | 128 µg/mL | 128 µg/mL | > 128 µg/mL |
| COc1cc(Cc2c3[n+](cc4c(O)c(OC)ccc24)CCc2cc4c(cc2-3)OCO4)cc(OC)c1OC.[Cl-] | > 128 µg/mL | 32 µg/mL | > 128 µg/mL | > 128 µg/mL | 128 µg/mL | 128 µg/mL | > 128 µg/mL |
| COc1ccc2c(Cc3ccc(C(C)C)cc3)c3[n+](cc2c1O)CCc1cc2c(cc1-3)OCO2.[Cl-] | 16 µg/mL | 4 µg/mL | 16 µg/mL | > 128 µg/mL | 8 µg/mL | 16 µg/mL | > 128 µg/mL |
| COc1cc(Cc2c3[n+](cc4c(OC)c(OC)ccc24)CCc2cc4c(cc2-3)OCO4)cc(OC)c1OC.[Cl-] | 128 µg/mL | 32 µg/mL | 64 µg/mL | > 128 µg/mL | 128 µg/mL | 64 µg/mL | > 128 µg/mL |
| COc1ccc2c(Cc3cc(F)c(F)c(F)c3)c3[n+](cc2c1OC)CCc1cc2c(cc1-3)OCO2.[Cl-] | 128 µg/mL | 64 µg/mL | 64 µg/mL | > 128 µg/mL | 128 µg/mL | 64 µg/mL | > 128 µg/mL |
| COc1ccc2c(Cc3cc(F)cc(F)c3)c3[n+](cc2c1O)CCc1cc2c(cc1-3)OCO2.[Cl-] | > 128 µg/mL | 32 µg/mL | 128 µg/mL | > 128 µg/mL | 128 µg/mL | 128 µg/mL | > 128 µg/mL |
| COc1ccc2c(Cc3ccc(C(F)(F)F)cc3)c3[n+](cc2c1OC)CCc1cc2c(cc1-3)OCO2.[Cl-] | 32 µg/mL | 16 µg/mL | 32 µg/mL | > 128 µg/mL | 32 µg/mL | 16 µg/mL | > 128 µg/mL |
| COc1ccc2c(Cc3ccc(OC(F)(F)F)cc3)c3[n+](cc2c1OC)CCc1cc2c(cc1-3)OCO2.[Cl-] | 16 µg/mL | 16 µg/mL | 16 µg/mL | > 128 µg/mL | 32 µg/mL | 8 µg/mL | > 128 µg/mL |
| COc1ccc2c(Cc3ccc(OC(F)(F)F)cc3)c3[n+](cc2c1O)CCc1cc2c(cc1-3)OCO2.[Cl-] | 64 µg/mL | 16 µg/mL | 32 µg/mL | > 128 µg/mL | 32 µg/mL | 32 µg/mL | > 128 µg/mL |
| C[C@@H]1[C@H](O)[C@@H](C)/C=C/C=C/C=C/C=C/C=C/C=C/C=C/[C@H](O[C@@H]2O[C@H](C)[C@@H](O)[C@H](N)[C@@H]2O)C[C@@H]2O[C@](O)(C[C@@H](O)C[C@@H](O)[C@H](O)CC[C@@H](O)C[C@@H](O)CC(=O)O[C@H]1C)C[C@H](O)[C@H]2C(=O)O [AMPHOTERICIN B] | 0.5 µg/mL (≈ 0.541 µM) | 0.25 µg/mL (≈ 0.271 µM) | 0.5 µg/mL (≈ 0.541 µM) | 16 µg/mL (≈ 17.3 µM) | 1 µg/mL (≈ 1.08 µM) | 0.5 µg/mL (≈ 0.541 µM) | 1 µg/mL (≈ 1.08 µM) |
| COc1ccc2cc3[n+](cc2c1OC)CCc1cc2c(cc1-3)OCO2.[Cl-] [BERBERINE CHLORIDE] | 128 µg/mL | 64 µg/mL | 32 µg/mL | > 128 µg/mL | > 128 µg/mL | 16 µg/mL | > 128 µg/mL |
| COc1ccc2cc3[n+](cc2c1O)CCc1cc2c(cc1-3)OCO2 [BERBERRUBINE] | > 128 µg/mL | > 128 µg/mL | > 128 µg/mL | > 128 µg/mL | > 128 µg/mL | 128 µg/mL | > 128 µg/mL |

— ChEMBL document CHEMBL1146003, “Synthesis of 13-(substituted benzyl) berberine and berberrubine derivatives as antifungal agents” (2006)
